For one molecule, sweat reduction results are on record in patent US20200054541A1, “METHODS FOR REDUCING SWEAT AND/OR BODY ODOR, USING P[…] WITH AMINE AND/OR HYDROXYL GROUPS” (Henkel AG & Co. KGaA, priority 2017, published 2020).

The assay deals with backs of 16 test persons. The assay can be described thus: In vivo test for antiperspirant activity (sauna sweat test, gravimetric). More on the design: species or system human. As to conditions: 5.0% by weight aqueous solution, 75 μL applied on the back on four consecutive days; measured 24 h after last application; about 15 minutes at 80° C. in the sauna; gravimetric vs untreated site; 16 subjects. The protocol: 1. In Vivo Test for Antiperspirant Activity
To determine the antiperspirant effect, an antiperspirant study was performed on the backs of 16 test persons. A 5.0% by weight aqueous solution of a phosphonate compound of the Formula (I) with a=b=1, R=*—(CH2)x—PO3X^+Y^+ group where x=1 and X^+=Y^+=hydrogen or Na^+ was prepared for this purpose.
75 μL of the prepared solution were applied on the back of 16 subjects on one side next to the spine. After 5 minutes, the treated sites were covered with occlusive non-adsorbent film. These non-adsorbent pads were removed after 2 hours. The compositions were each applied to the backs of the subjects for four consecutive days in the manner previously described. 24 h after the last application of the composition, absorbent pads were applied to the backs of the subjects at the sites where the compositions were previously applied. Furthermore, pads, which served as a control, were also applied on the other side of the spine at the same height. After the subjects had sweat for about 15 minutes at 80° C. in the sauna, the amount of perspiration absorbed by the pads was determined gravimetrically, wherein each composition was compared with the corresponding untreated site on the back. The sweat reduction was determined from the gravimetric determination of the amount of sweat, wherein all determined values were statistically significant.

`O=P(O)(O)CN(CP(=O)(O)O)CP(=O)(O)O` [phosphonate compound of Formula (I), aminotrimethylene phosphonate] gave a sweat reduction of 10.1%.
